Assay results as given in patent US10912777B2 (Academia Sinica, priority 2016, dated 2021).
Read-outs that look alike come from different tables or passages of the source.

How the values were obtained:
SK-hep1 cells = assay: Cell viability assay (ALAMAR BLUE), SK-hep1 cells with or without ectopic SLC29A2; assay type: cell-based
Method: HCC cell lines (Sk-hep1 and Mahlavu) were maintained in Dulbecco's modified Eagle's medium (DMEM) with 10% fetal bovine serum, 1% non-essential amino acid, 1% L-glutamine, and 1% penicillin/streptomycin. All cells were tested for mycoplasma contamination.
pcDNA3.0/HA˜SLC29A2 was generated according to Chen et al. (2010) (Hepatologs, 52(5), 1690-1701), To stably express SLC29A2 or STAT3D, HCC cell lines were transfected with the plasmid according to the instruction manual by JetPrime transfection reagent (Polyplus), and further selected in the presence of G418 (SK-hep1: 800 μg/mL, Mahlavu: 500 μg/mL)

SLC29A2 = assay: Confocal microscopy of nuclear translocation; assay type: cell-based; conditions: FIG. 5E
Method: Cells were grown on glass slides. After washing with ice-cold PBS, cells were fixed with methanol, blocked with 5% BSA, and incubated with primary antibodies at 4° C. overnight. The slides were washed with PBS, and incubated with Alexa488 or AIexa594-conjugated secondary antibodies. The slides were then washed with PBS, stained with DAPI and mounted with Dako fluorescent mounting medium (#S3025, Dako). The immunostained cells were acquired by Zeiss LSM 700 laser-scanning microscope with 63X/1.4 objective. The images were analyzed with ZEN, AxioVision, and imagesJ software.

HCC cell lines = HCC cell lines carrying amplified SLC29A2 vs non-amplified cells; FIG. 5A
Method: The cell proliferation and cell viability were detected by […] BLUE® reagent (DAL1100, Thermo Fisher) according to the manufacturer's instruction. […] BLUE® for incubation at 37° C. for 1 hour. The ALAMAR BLUB® fluorescence was excited at 560 nm and measured at 590 nm.

Stat3 = conditions: SLC29A2 ectopically expressing cells, FIG. 5D; for SLC29A2-induced Stat3 phosphorylation: 6B
SLC29A2-expressing cells = assay: Trans-well (Boyden chamber) migration assay; assay type: cell-based; conditions: SLC29A2 ectopically expressing cells; FIG. 5C
Method: A total of 1×10^4 cells were seeded in the upper chamber of 8 micron Boyden chamber insert (#MCEP24H48, Millipore) containing a serum-free medium. The inserts were then hanged on the 24-well plate containing a complete medium. After 16 hours, the non-migrated cells were wiped out and the migrated cells were fixed with methanol and stained with Liu's stain. The migrated cells were counted by ImageJ software.

[1] = test system: luciferase-carrying SK-hep1 cells
Method: All animal procedures were conducted under the approval of the institutional animal care and user committee of Academia Sinica. […] The luciferase activities were detected by the IVIS Image system every two weeks, and the images were analyzed with IVIS operating software.
The mice wore sacrificed 48 weeks after the tumor injection or before the tumors grew larger than allowed. The tumor samples were collected and fixed with 4% paraformaldehyde.

late-stage HCC = conditions: cited from earlier work

Row | SMILES | sensitivity of cells to dipyridamole (cell viability) (SK-hep1 cells; SK-hep1 cells expressing SLC29A2 vs control cells, FIG. 5B) | Stat3 nuclear translocation (SLC29A2) | nuclear translocation of SLC29A2 (SLC29A2) | sensitivity of cells to dipyridamole (cell viability, IC50) (HCC cell lines) | cyclin D1 down-regulation (Stat3) | SLC29A2-induced Stat3 phosphorylation (Stat3) | SLC29A2-induced Stat3 phosphorylation (Stat3; listed as SLC29A2 inhibitor) | trans-well migration (SLC29A2-expressing cells) | resistance of cells to sorafenib (cell viability) (SK-hep1 cells; SLC29A2 expressing cells vs control cells, FIG. 6A) | body weight changes and toxicity to mice ([1]; mouse, in vivo) | tumor burden (IVIS) ([1]; oral gavage once a day, sorafenib 10 mg/kg/day, dipyridamole 25 mg/kg/day, 6 weeks after treatment, FIG. 6D) | prolongation of overall survival (late-stage HCC; late-stage HCC patients who received sorafenib) | side effects (late-stage HCC; patients who received sorafenib)
1 | OCCN(CCO)c1nc(N2CCCCC2)c2nc(N(CCO)CCO)nc(N3CCCCC3)c2n1 [dipyridamole] | sensitive to dipyridamole than control cells | decreased SLC29A2 and Stat3 nuclear translocation | reduces the nuclear translocation of SLC29A2 | sensitive to dipyridamole compared to non-amplified cells | down-regulation of cyclin D1 was reversed | inhibits the SLC29A2-induced Stat3 phosphorylation | decreased SLC29A2-induced Stat3 phosphorylation in a dosage-dependent manner | reduced trans-well migration of SLC29A2-expressing cells | – | – | – | – | –
2 | CNC(=O)c1cc(Oc2ccc(NC(=O)Nc3ccc(Cl)c(C(F)(F)F)c3)cc2)ccn1 [sorafenib] | – | – | – | – | – | – | – | – | much more resistant to sorafenib as compared to the control cells | no significant body weight changes and toxicity | reduced the tumor burden in both SLC29A2-expressing and control groups | 3˜6 months | severe side effects
